Experimental data: US20140107109A1, “AMINO-DIHYDROTHIAZINE AND AMINO-DIOXIDO DIHYDROTHIAZINE COMPOUNDS AS BETA-SECRETASE ANTAGONISTS AND METHODS OF USE” (Amgen Inc., priority 2012, published 2014)
Like-named read-outs stand apart in the source and are kept apart here.

Experiments:
[1] = biological target: Beta Secretase enzyme (BACE1) (Homo sapiens, UniProt P56817); assay: In vitro enzymatic BACE FRET assay; format: biochemical; settings: read-out: BACE1 FRET assay IC50
Method in brief: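 BACE1 cleavage of a 50 nM fluorophore/quencher peptide FRET substrate ran for one hour in 0.05 M acetate pH 4.2, 10% DMSO, 100 uM genapol. Tris buffer raised pH to neutrality to stop the reaction before fluorescence was read (excitation 488 nm, […]).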

Cathepsin D (Cat D) = biological target: T1, Cathepsin D (Cat D) (Homo sapiens, UniProt P07339); assay: In vitro enzymatic Cathepsin D (Cat D) FRET assay; format: biochemical; settings: read-out: CatD IC50
T1 construct: Recombinant Cat D was expressed in CHO cells; made in house; host or cells: CHO cells
Method in brief: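 Recombinant Cat D expressed in CHO cells, used at 9 nM and pre-incubated one hour with serially diluted inhibitor in DMSO. Peptide substrate carries a fluorophore and quencher flanking the cleavage site; reaction stopped with Tris buffer raising pH to neutrality, then fluorescence read.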

[2] = system: Aβ40 in conditioned medium of cells stably expressing Amyloid Precursor Protein (APP); assay: In vitro BACE cell-based assay (HEK cell assay), Aβ40 sandwich ELISA; settings: Homo sapiens, HEK293
Method in brief: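 APP-stably expressing cells (40K/well, grown 24 h in DMEM/10% FBS) were treated 24 h with compounds in 10-point dose response starting at 100 μM or 10 μM, 0.1% DMSO final. Secreted Aβ40 was measured by sandwich ELISA (pAb40 capture, biotinylated 6E10 detection, europium time-resolved fluorescence); IC50 from percent inhibition.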

Sequence of Beta Secretase enzyme (BACE1) (P56817 46-501): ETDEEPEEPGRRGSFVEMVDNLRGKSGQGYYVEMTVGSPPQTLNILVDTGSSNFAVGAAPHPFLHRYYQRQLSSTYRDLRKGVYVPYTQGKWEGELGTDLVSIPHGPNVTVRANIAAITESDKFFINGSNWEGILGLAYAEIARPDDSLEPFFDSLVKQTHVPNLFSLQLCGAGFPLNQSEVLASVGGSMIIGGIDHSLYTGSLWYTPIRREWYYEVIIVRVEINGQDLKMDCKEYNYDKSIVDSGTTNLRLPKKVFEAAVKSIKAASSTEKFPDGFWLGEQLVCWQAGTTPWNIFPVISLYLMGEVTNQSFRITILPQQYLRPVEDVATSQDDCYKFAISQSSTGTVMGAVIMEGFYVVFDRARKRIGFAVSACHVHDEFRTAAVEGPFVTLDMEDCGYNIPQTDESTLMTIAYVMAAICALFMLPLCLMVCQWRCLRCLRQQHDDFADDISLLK
T1 sequence (P07339 65-412, species assumed): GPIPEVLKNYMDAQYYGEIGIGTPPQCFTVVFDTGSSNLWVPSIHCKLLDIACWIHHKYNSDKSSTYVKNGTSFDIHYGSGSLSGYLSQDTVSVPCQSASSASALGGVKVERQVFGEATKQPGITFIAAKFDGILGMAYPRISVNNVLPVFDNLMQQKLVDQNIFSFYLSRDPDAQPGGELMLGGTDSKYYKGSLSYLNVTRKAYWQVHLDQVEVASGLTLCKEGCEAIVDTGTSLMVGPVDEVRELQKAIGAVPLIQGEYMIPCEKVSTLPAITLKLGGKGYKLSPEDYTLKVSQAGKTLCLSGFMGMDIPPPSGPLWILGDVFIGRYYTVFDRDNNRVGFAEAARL

SMILES | IC50 ([1]; average IC50, enzyme assay) | IC50 (Cathepsin D (Cat D)) | IC50 ([2]; average IC50, HEK cell assay) | IC50 [1] | IC50 [2] | IC50 ([2]; average IC50, cell assay) | IC50 ([1]; average IC50) | IC50 ([2]; average IC50, HEK cells)
CC1(C)C(N)=N[C@](C)(c2cc(Oc3nccc(C#N)c3Cl)ccc2F)CS1(=O)=O [Example 307, 2-(3-((3R)-5-amino-3,6,6-trimethyl-1,1-dioxido-3,6-dihydro-2H-1,4-thiazin-3-yl)-4-fluorophenoxy)-3-chloro-4-pyridinecarbonitrile] | 0.168 µM | 298 µM | 0.258 µM |  |  |  |  | 
CC1(C)C(N)=N[C@](C)(c2cc(Oc3cc(C(F)(F)F)ccn3)ccc2F)CS1(=O)=O [Example 259, (5R)-5-(2-fluoro-5-((4-(trifluoromethyl)-2-pyridinyl)oxy)phenyl)-2,2,5-trimethyl-5,6-dihydro-2H-1,4-thiazin-3-amine 1,1-dioxide] | 0.153 µM | 1050 µM |  |  |  | 0.248 µM |  | 
CC1(C)C(N)=N[C@](C)(c2cc(Nc3ncc(F)c4cc(Cl)cnc34)cnc2F)CS1(=O)=O [Example 220, N-(5-((3R)-5-amino-3,6,6-trimethyl-1,1-dioxido-3,6-dihydro-2H-1,4-thiazin-3-yl)-6-fluoro-3-pyridinyl)-3-chloro-5-fluoro-1,7-naphthyridin-8-amine] | < 0.002 µM | 15.2 µM |  |  |  | 0.0033 µM |  | 
CC1(C)C(N)=N[C@](C)(c2cc(Oc3cc(-c4ccc(C(F)(F)F)cc4)ccn3)ccc2F)CS1(=O)=O [Example 255, (5R)-5-(2-fluoro-5-((4-(4-(trifluoromethyl)phenyl)-2-pyridinyl)oxy)phenyl)-2,2,5-trimethyl-5,6-dihydro-2H-1,4-thiazin-3-amine 1,1-dioxide] | 0.663 µM | 50.5 µM |  |  |  | 3.99 µM |  | 
CC1(C)C(N)=N[C@](C)(c2cc(Nc3c(Cl)sc4cc(C#N)cnc34)ccc2F)CS1(=O)=O [Example 167, (R)-3-((3-(5-amino-3,6,6-trimethyl-1,1-dioxido-3,6-dihydro-2H-1,4-thiazin-3-yl)-4-fluorophenyl)-amino)-2-chlorothieno[3,2-b]pyridine-6-carbonitrile] |  | 11.8 µM |  | 0.0139 µM | 1.44 µM |  |  | 
CC1(C)C(N)=N[C@](C)(c2cc(Nc3ncc(Cl)c4cc(Cl)cnc34)ccc2F)CS1(=O)=O [Example 192, (R)-5-amino-3-(5-((3,5-dichloro-1,7-naphthyridin-8-yl)amino)-2-fluorophenyl)-3,6,6-trimethyl-3,6-dihydro-2H-1,4-thiazine 1,1-dioxide] | 0.0007 µM | 32.4 µM |  |  |  | 0.0366 µM |  | 

The remaining lines, values ahead:

IC50 ([1]; average IC50, enzyme assay) | IC50 (Cathepsin D (Cat D)) | IC50 ([2]; average IC50, HEK cell assay) | IC50 [1] | IC50 [2] | IC50 ([2]; average IC50, cell assay) | IC50 ([1]; average IC50) | IC50 ([2]; average IC50, HEK cells) | SMILES
 | 303 µM |  | 0.00969 µM | 0.0361 µM |  |  |  | CC1(C)C(N)=N[C@](CF)(c2cc(NC(=O)c3cn4cc(Cl)ccc4n3)ccc2F)CS1(=O)=O [Example 391, N-(3-((3S)-5-amino-3-(fluoromethyl)-6,6-dimethyl-1,1-dioxido-3,6-dihydro-2H-1,4-thiazin-3-yl)-4-fluorophenyl)-6-chloroimidazo[1,2-a]pyridine-2-carboxamide]
0.174 µM | 82.4 µM | 0.796 µM |  |  |  |  |  | CC1(C)C(N)=N[C@](C)(c2cc(Oc3ncc(Cl)cc3Cl)ccc2F)CS1(=O)=O [Example 299, (5R)-5-(5-((3,5-dichloro-2-pyridinyl)oxy)-2-fluorophenyl)-2,2,5-trimethyl-5,6-dihydro-2H-1,4-thiazin-3-amine 1,1-dioxide]
 | 637 µM |  |  |  |  | 0.15 µM | 0.83 µM | Cc1cc(OC(F)F)cnc1C(=O)Nc1ccc(F)c([C@@]2(CF)CS(=O)(=O)C3(CC3)C(N)=N2)c1 [Example 218, N-(3-((6R)-8-amino-6-(fluoromethyl)-4,4-dioxido-4-thia-7-azaspiro[2.5]oct-7-en-6-yl)-4-fluorophenyl)-5-(difluoromethoxy)-3-methyl-2-pyridinecarboxamide]
0.00589 µM | 490 µM | 0.00992 µM |  |  |  |  |  | CC1(C)C(N)=N[C@](C)(c2cc(NC(=O)c3ncc(C(F)F)cc3Cl)cnc2F)CS1(=O)=O [Example 348, N-(5-((3R)-5-amino-3,6,6-trimethyl-1,1-dioxido-3,6-dihydro-2H-1,4-thiazin-3-yl)-6-fluoro-3-pyridinyl)-3-chloro-5-(difluoromethyl)-2-pyridinecarboxamide]
